Laboratory results published in patent US20130203649A1, “INHIBITORS OF TLR SIGNALING BY TARGETING TIR DOMAIN INTERFACES” (UNIVERSITY OF MARYLAND, BALTIMORE, priority 2012, published 2013).
No end group written: not given here.

System: TLR4/MyD88
Assay: LPS-induced TLR4/MyD88 coimmunoprecipitation in mouse peritoneal macrophages
Assay type: cell-based
Conditions: 20 μM peptide 30 min before LPS 100 ng/ml
Method: FIG. 9. TM4, TM6, and TR6 block adapter recruitment to TLR4. (A) A total of 6×10^5 HEK293T cells was transfected with 1 μg pcDNA3.1-mTLR4-Cer and pEF-BOS-mTRAM-HA. Twenty-four hours posttransfection, the cells were treated with 20 μM of each peptide for 1 h. Cell lysates were immunoprecipitated with anti-GFP Ab and blotted with anti-HA-HRP. (B) A total of 2×10^6 mouse peritoneal macrophages was pretreated with 20 μM of each peptide for 30 min prior to stimulation with 100 ng/ml LPS. Cell extracts were obtained 30 min after LPS treatment, immunoprecipitated with goat anti-TLR4 Ab, and blotted with rabbit anti-MyD88 or anti-TLR4 Ab. Data are representative of three independent experiments.
HEK293T cells were transfected with indicated plasmids using Superfect Transfection Reagent (Qiagen). […] Protein was quantified using Bio-Rad protein quantification kit. Equal amount of protein was loaded and analyzed by 10% SDS-PAGE and immunoblotting. The cell extracts containing equal amount of protein were incubated with 1 μg Ab for 2 h, followed by 4-h incubation with 25 μl protein G agarose beads (Roche); the beads were then washed four times with lysis buffer, boiled in […] sample loading buffer, and analyzed by immunoblotting. […]

## RQIKIWFQNRRMKWKKPGFLRDPWCKYQML [TR6]
  LPS-induced TLR4/MyD88 association: efficiently prevented
